Test results: ChEMBL document CHEMBL1136461 (Bioorg Med Chem Lett, 2003)
Converted amounts (≈) assume the structure as drawn.

Columns and labels:
[1] = system: Moraxella catarrhalis; assay: Antibacterial activity against Moraxella catarrhalis; format: functional
[2] = system: Mus musculus; assay: Efficacy of compound to protect the methicillin resistant Staphylococcus aureus infected murine po administration; format: functional
[3] = system: Streptococcus agalactiae; assay: Antibacterial activity against Streptococcus agalactiae; format: functional
[4] = system: Staphylococcus aureus; assay: Antibacterial activity against methicillin resistant Staphylococcus aureus (MRSA); format: functional
[5] = system: Staphylococcus aureus; assay: Antibacterial activity against methicillin susceptible Staphylococcus aureus (MSSA); format: functional
[6] = system: Haemophilus influenzae; assay: Antibacterial activity against […] influenzae; format: functional
[7] = system: Streptococcus pyogenes (Streptococcus pyogenes); assay: Antibacterial activity against Streptococcus pyogenes
[8] = system: Mus musculus; assay: Efficacy of compound to protect the methicillin resistant […] infected murine sc administration; format: functional
[9] = system: Streptococcus pneumoniae; assay: Antibacterial activity against Streptococcus pneumoniae (PEN-R); format: functional
[10] = system: Enterococcus sp.; assay: Antibacterial activity against Enterococcus species; format: functional
[11] = system: Mus musculus; assay: Efficacy of compound to protect the methicillin resistant Staphylococcus aureus infected murine iv administration; format: functional
[12] = system: Streptococcus pneumoniae; assay: Antibacterial activity against Staphylococcus pneumoniae (PEN-R)

Row | SMILES | MIC90 [1] | ED50 [2] | MIC90 [3] | MIC90 [4] | MIC90 [5] | MIC90 [6] | MIC90 [7] | ED50 [8] | MIC90 [9] | MIC90 [10] | ED50 [11] | MIC90 [12]
1 | COc1cc(Cc2cnc(N)nc2N)c2c(c1OC)OC(C1CC1)C=C2 (configuration not stated) | 4 µg/mL (≈ 11.3 µM) | 17 mg/kg | 0.5 µg/mL (≈ 1.41 µM) | 0.06 µg/mL (≈ 0.169 µM) | 0.06 µg/mL (≈ 0.169 µM) | 0.5 µg/mL (≈ 1.41 µM) | 0.03 µg/mL (≈ 0.0846 µM) | 20 mg/kg | 4 µg/mL (≈ 11.3 µM) | 0.12 µg/mL (≈ 0.339 µM) | 4.3 mg/kg | –
2 | CC(=O)NC[C@H]1CN(c2ccc(N3CCOCC3)c(F)c2)C(=O)O1 [LINEZOLID] | 8 µg/mL (≈ 23.7 µM) | – | 2 µg/mL (≈ 5.93 µM) | 8 µg/mL (≈ 23.7 µM) | 8 µg/mL (≈ 23.7 µM) | 64 µg/mL (≈ 190 µM) | 2 µg/mL (≈ 5.93 µM) | – | 2 µg/mL (≈ 5.93 µM) | 4 µg/mL (≈ 11.9 µM) | – | –
3 | COc1cc(Cc2cnc(N)nc2N)cc(OC)c1OC [TRIMETHOPRIM] | 128 µg/mL (≈ 441 µM) | – | 128 µg/mL (≈ 441 µM) | 8 µg/mL (≈ 27.6 µM) | 16 µg/mL (≈ 55.1 µM) | 1 µg/mL (≈ 3.44 µM) | 64 µg/mL (≈ 220 µM) | 60 mg/kg | – | 8 µg/mL (≈ 27.6 µM) | 15 mg/kg | > 128 µg/mL
4 | CN[C@H](CC(C)C)C(=O)N[C@H]1C(=O)N[C@@H](CC(N)=O)C(=O)N[C@H]2C(=O)N[C@H]3C(=O)N[C@H](C(=O)N[C@H](C(=O)O)c4cc(O)cc(O)c4-c4cc3ccc4O)[C@H](O)c3ccc(c(Cl)c3)Oc3cc2cc(c3O[C@@H]2O[C@H](CO)[C@@H](O)[C@H](O)[C@H]2O[C@H]2C[C@](C)(N)[C@H](O)[C@H](C)O2)Oc2ccc(cc2Cl)[C@H]1O [VANCOMYCIN] | 64 µg/mL (≈ 44.2 µM) | – | 0.5 µg/mL (≈ 0.345 µM) | 1 µg/mL (≈ 0.69 µM) | 1 µg/mL (≈ 0.69 µM) | 128 µg/mL (≈ 88.3 µM) | 1 µg/mL (≈ 0.69 µM) | – | 1 µg/mL (≈ 0.69 µM) | 2 µg/mL (≈ 1.38 µM) | – | –
